Test: in vitro
Conditions: human, hela cells, % viability

Row | SMILES | viability at 28.5 h, 10 µM [%]
1 | CCn1cc(C(=O)N2C[C@H](C(=O)OC)[C@@H](c3ccccc3F)C2)cn1 [CBK283510] | 94.2
2 | CC(C)c1nccn1CCC(=O)N1CCC(c2ccncc2)CC1 [CBK283512] | 105
3 | Cc1nc2cc(C(=O)N3CCC(c4ccncc4)CC3)ccc2s1 [CBK283513] | 85.7
4 | O=C(c1cccnc1)C1CCN(C(=O)Cc2ccc(F)cc2)CC1 [CBK283515] | 90.5
5 | COC(=O)[C@H]1CN(C(=O)Cc2ccccn2)C[C@@H]1c1ccc(F)cc1 [CBK283519] | 93.8
6 | COC(=O)[C@H]1CN(C(=O)c2scnc2C)C[C@@H]1c1ccc(F)cc1 [CBK283520] | 104
7 | COC(=O)[C@H]1CN(C(=O)C2CC(=O)N(C)C2)C[C@@H]1c1ccc(F)cc1 (stereo partly shown) [CBK283521] | 93
8 | O=C(CCn1cnc2ccccc21)N1CCC(c2ccncc2)CC1 [CBK283522] | 102
9 | CCC(C(=O)N1CCC(C(=O)c2cccnc2)CC1)c1ccccc1 (stereo not shown) [CBK283525] | 91.1
10 | O=C(c1cccnc1)C1CCN(C(=O)c2cccs2)CC1 [CBK283528] | 102
11 | Cc1cc(C)n(CCC(=O)N2CCC(c3ccncc3)CC2)n1 [CBK283529] | 94.1
12 | Cc1ncsc1C(=O)N1CCCCC1c1nc2ccccc2[nH]1 (stereo not shown) [CBK283531] | 95.9
13 | CC(c1ccccc1)c1nc2cnccn2c1NC(C)(C)C (stereo not shown) [CBK283533] | 92.3
14 | COCCn1c(=O)n(CC=C(C)C)c2cccnc21 [CBK283534] | 92.1
15 | Cn1ccnc1C1(O)CCN(C(=O)c2ccccc2F)CC1 [CBK283536] | 105
16 | O=C(Cc1cccnc1)N1CCC(O)(c2cccc(F)c2)CC1 [CBK283537] | 95.9
17 | Cc1ccc2cc3c(nc2c1)OCC(=O)N(Cc1ccco1)C3 [CBK283539] | 92.9
18 | c1coc(CNc2c(-c3cccs3)nc3cnccn23)c1 [CBK283540] | 93.2
19 | Cn1ccnc1C1(O)CCN(C(=O)CCc2ccccc2)CC1 [CBK283542] | 92
20 | Cn1ccnc1C1(O)CCN(C(=O)c2cc(F)cc(F)c2)CC1 [CBK283544] | 102
21 | O=C(C1CCC1)N1C2CCC1CC(O)(c1ccc(F)cc1)C2 (stereo not shown) [CBK283547] | 92.5
22 | O=C(CN1CCC(c2ccccc2F)CC1)NCc1ccco1 [CBK283550] | 88.3
23 | O=C(CN1CCC(c2ccccc2F)CC1)NC1CCCC1 [CBK283551] | 97.4
24 | Cn1ccnc1C1(O)CCN(C(=O)c2ccc(F)cc2F)CC1 [CBK283552] | 103

Row | SMILES | viability at 28.5 h, 10 µM [%]
25 | O=C(c1cccc(Cl)c1)N1CCC(O)(c2cccnc2)CC1 [CBK283553] | 93.2
26 | O=C(Cn1ncc2cccn2c1=O)OCC(F)(F)F [CBK283554] | 93.7
27 | Cc1nn(CC(=O)N2C(C)CCCC2C)c(=O)c2cc3occc3n12 (stereo not shown) [CBK283555] | 80.8
28 | Cc1ccc(C2=CCN(CC(=O)N3CCCCC3C)CC2)o1 (stereo not shown) [CBK283556] | 86.8
29 | COc1ccc(C2CCN(CC(=O)NC(C)(C)C)CC2)cc1 [CBK283558] | 92.7
30 | CCN(CC)C(=O)CN1CCC(c2ccc(OC)cc2)CC1 [CBK283559] | 102
31 | C=CCNC(=O)CN1CCC(c2ccc(OC)cc2)CC1 [CBK283560] | 106
32 | COc1ccc(C2CCN(CC(=O)N3CCCC3)CC2)cc1 [CBK283561] | 101
33 | COc1ccc(C2CCN(Cc3cccnc3)CC2)cc1 [CBK283564] | 96.1
34 | Cc1ccc(C2=CCN(S(=O)(=O)c3ccc(F)cc3)CC2)o1 [CBK283571] | 93
35 | COc1ccc(CC(=O)N2CC=C(c3ccc(C)o3)CC2)cc1 [CBK283572] | 92.4
36 | O=C(Cc1ccc(F)cc1)N1CCC(n2cnc3cccnc32)CC1 [CBK283574] | 91.1
37 | CCc1nn(CC(=O)N(C)C)c(=O)c2cc3oc(C)cc3n12 [CBK283576] | 114
38 | O=C(CN1CCC(c2ccccc2F)CC1)Nc1nccs1 [CBK283579] | 106
39 | CC(c1cccc(F)c1)n1cc(C(=O)NCCc2ccco2)nn1 (stereo not shown) [CBK283582] | 102
40 | CCc1nn(CC(=O)N2CCCC2)c(=O)c2cc3oc(C)cc3n12 [CBK283584] | 110
41 | Cn1ccnc1C1(O)CCN(C(=O)Cc2ccccc2F)CC1 [CBK283585] | 97.6
42 | O=C(Cc1cccc(F)c1)N1CCC(O)(c2ccccn2)CC1 [CBK283586] | 100
43 | O=C(Cc1cccs1)N1CCC(O)(c2ccccn2)CC1 [CBK283587] | 96.4
44 | O=C(Cc1ccc(F)cc1)N1CCC(O)(c2ccccn2)CC1 [CBK283588] | 97
45 | Cc1cc2c(cc3c(=O)n(CC(=O)N4CCC(C)CC4)nc(C)n32)o1 [CBK283590] | 90.1
46 | Cc1nc2cccnc2n1CCNC(=O)Cc1cccs1 [CBK283592] | 107
47 | Cc1nc2cccnc2n1CCNC(=O)c1cccc(Cl)c1 [CBK283593] | 97.9
48 | Cc1ccc2nc3c(cc2c1)CN(Cc1ccco1)C(=O)CO3 [CBK283594] | 103

Row | SMILES | viability at 28.5 h, 10 µM [%]
49 | O=C(NC1(c2ccc(F)cc2)CCCC1)c1cnccn1 [CBK283595] | 85.1
50 | CCOc1ccc(CC(=O)N2CCC(c3ccncc3)CC2)cc1 [CBK283596] | 87.8
51 | O=C1CC2(CCN(C(=O)N3CCCC3)CC2)Oc2ccc(F)cc21 [CBK283597] | 84.9
52 | COc1ccccc1[C@@H]1C[C@H](OC(=O)c2ccc(F)cc2)C(=O)N1C [CBK283598] | 92
53 | Cc1ccc2c(c1)C(=O)CC1(CCN(C(=O)OC(C)(C)C)CC1)O2 [CBK283599] | 98
54 | COc1cccc(C2(NC(=O)CCn3nccc3C)CCCC2)c1 [CBK283601] | 101
55 | CN1CC=C(/C=C/c2c[nH]c3ccccc23)CC1 [CBK283602] | 89.4
56 | O=C(CCC1CCCC1)N1CCC(O)(c2cccnc2)CC1 [CBK283603] | 101
57 | Cc1csc(NC(=O)CN2CC=C(c3ccc(C)o3)CC2)n1 [CBK283606] | 96.5
58 | Cc1cc(NC(=O)CN2CC=C(c3ccc(C)o3)CC2)no1 [CBK283608] | 106
59 | CC(=O)NC1(c2ccc(F)cc2)CCN(Cc2cccnc2)CC1 [CBK283610] | 103
60 | O=C(NC1(c2ccc(F)cc2)CCCC1)c1cnn2cccnc12 [CBK283612] | 97.4
61 | Cc1nonc1CC(=O)NC1(c2ccc(F)cc2)CCCC1 [CBK283613] | 93.2
62 | Cc1nn(C)cc1C(=O)O[C@H]1C[C@@H](c2ccc(F)cc2)N(C)C1=O [CBK283615] | 103
63 | Cc1cccnc1C1(O)CCN(C(=O)Cc2ccccc2F)CC1 [CBK283617] | 97.8
64 | O=C(NC1(c2cccc(F)c2)CCCC1)c1cnccn1 [CBK283619] | 93
65 | Cc1nn(CC(=O)N2CCCC2)c(=O)c2cc3occc3n12 [CBK283621] | 84.5
66 | Cc1nn(CC(=O)N2CCCCC2C)c(=O)c2cc3occc3n12 (stereo not shown) [CBK283622] | 76.7
67 | Cc1nn(CC(=O)N2CCCC(C)C2)c(=O)c2cc3occc3n12 (stereo not shown) [CBK283623] | 91.6
68 | Cc1nn(CC(=O)N2CCCCCC2)c(=O)c2cc3occc3n12 [CBK283624] | 96.5
69 | O=C1CC2(CCN(C(=O)C3CCCC3)CC2)Oc2ccc(Cl)cc21 [CBK283625] | 90.9
70 | COc1ccccc1C1(NC(=O)CCn2cccn2)CCCC1 [CBK283626] | 103
71 | COc1ccccc1C1(NC(=O)CCn2nccc2C)CCCC1 [CBK283628] | 89.7
72 | Cc1ccc(C2=CCN(CC(=O)NCc3ccco3)CC2)o1 [CBK283632] | 107

Row | SMILES | viability at 28.5 h, 10 µM [%]
73 | Cc1ccc(C2=CCN(CC(=O)Nc3ccccn3)CC2)o1 [CBK283634] | 98.7
74 | Cc1nc2cccnc2n1C1CCN(C(=O)NC2CCCCC2)CC1 [CBK283637] | 88.5
75 | CCc1nc2cccnc2n1CCNC(=O)Cc1cccs1 [CBK283639] | 98.9
76 | O=C(CN1CCC(c2ccc(F)cc2)CC1)N1CCCCC1 [CBK283640] | 101
77 | Cc1cc(O)n2nc(C)c(-c3ccc(F)cc3)c2n1 [CBK283642] | 89.3
78 | COc1ccccc1C1(NC(=O)c2c(C)noc2C)CCCC1 [CBK283644] | 95
79 | Cc1ccc(C)n1-c1cccc(C(=O)N2CCn3cnnc3C2)c1 [CBK283646] | 96.2
80 | Cn1ccnc1C1(O)CCN(C(=O)CC2CCCCC2)CC1 [CBK283647] | 97.2
81 | COc1cccc(C2(NC(=O)Cn3nc(C)cc3C)CCCC2)c1 [CBK283648] | 98.1
82 | CN1C(=O)[C@@H](OC(=O)c2cccnc2)C[C@H]1c1ccc(F)cc1 [CBK283649] | 104
83 | O=C(c1cc[nH]n1)N1CCC2(CC1)Nc1ccccc1-n1cccc12 [CBK283652] | 96.1
84 | Cc1nn(CC(=O)N2CCC(C)CC2)c(=O)c2cc3occc3n12 [CBK283654] | 89.8
85 | Cc1nn(CC(=O)N(C(C)C)C(C)C)c(=O)c2cc3occc3n12 [CBK283655] | 98.4
86 | CCc1nn(CC(=O)N2CCCC(C)C2)c(=O)c2cc3occc3n12 (stereo not shown) [CBK283657] | 79.3
87 | COc1cccc(CC(=O)N2CCCC2c2nc3ccccc3[nH]2)c1 (stereo not shown) [CBK283665] | 99.8
88 | COc1ccc(CC(=O)N2CCCC2c2nc3ccccc3[nH]2)cc1 (stereo not shown) [CBK283666] | 93.4
89 | COc1ccc(CCC2CCN(C)CC2)c(O)c1 [CBK283668] | 104
90 | O=C(c1ccc(F)cc1)N1CCC(O)(c2ccccn2)CC1 [CBK283669] | 92.9
91 | CC1CCCCC1NC(=O)Cn1ncc2cccn2c1=O (stereo not shown) [CBK283673] | 98.7
92 | CCc1nn(CC(=O)N2CCCCC2)c(=O)c2cc3occc3n12 [CBK283674] | 77
93 | CCc1nn(CC(=O)N2CCCCCC2)c(=O)c2cc3occc3n12 [CBK283677] | 86.9
94 | Cc1cccnc1C1(O)CCN(C(=O)Cc2ccccc2Cl)CC1 [CBK283682] | 98.7
